Patent US8039487B2, “Piperidine-amide derivatives” (Hoffmann-La Roche Inc., priority 2007, dated 2011)

These compounds were tested against T1, liver carnitine palmitoyl transferase 1 (L-CPT1) (Homo sapiens, UniProt P50416) (assay: L-CPT1 inhibition, spectrophotometric CPT activity assay with DTNB (Ellman's reagent)). Conditions: human liver CPT1 expressed in P. pastoris, cell extracts; carnitine 500 μM, palmitoyl-CoA 80 μM, DTNB 300 μM, pH 7.4.
T1 construct: made in house; host or cells: Pichia pastoris strain X-33 (crude cell-free extract)
T1 sequence (P50416 1-773): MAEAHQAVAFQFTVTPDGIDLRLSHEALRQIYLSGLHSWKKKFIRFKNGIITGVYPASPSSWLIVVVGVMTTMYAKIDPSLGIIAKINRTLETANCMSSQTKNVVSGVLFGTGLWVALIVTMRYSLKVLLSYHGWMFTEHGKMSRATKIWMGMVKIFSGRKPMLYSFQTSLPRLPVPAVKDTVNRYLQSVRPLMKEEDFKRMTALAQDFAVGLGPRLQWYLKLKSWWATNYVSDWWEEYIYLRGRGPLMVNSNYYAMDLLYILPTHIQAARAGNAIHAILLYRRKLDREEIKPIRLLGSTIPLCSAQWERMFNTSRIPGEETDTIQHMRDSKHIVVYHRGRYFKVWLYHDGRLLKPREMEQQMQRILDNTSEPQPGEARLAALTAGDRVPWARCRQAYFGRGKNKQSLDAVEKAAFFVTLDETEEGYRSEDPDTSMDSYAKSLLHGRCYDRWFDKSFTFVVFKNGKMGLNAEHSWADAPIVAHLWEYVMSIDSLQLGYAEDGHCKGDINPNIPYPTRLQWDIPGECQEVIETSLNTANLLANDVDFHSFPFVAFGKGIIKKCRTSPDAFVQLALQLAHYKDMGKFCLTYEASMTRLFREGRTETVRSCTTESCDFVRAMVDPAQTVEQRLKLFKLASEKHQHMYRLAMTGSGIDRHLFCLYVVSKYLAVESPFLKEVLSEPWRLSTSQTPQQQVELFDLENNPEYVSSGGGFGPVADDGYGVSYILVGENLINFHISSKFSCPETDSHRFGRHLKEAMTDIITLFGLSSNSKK
Assay type: biochemical
Protocol: The following tests were carried out in order to determine the activity of the compounds of the present invention. Background information on the performed assays can be found in: Jackson et al., 1999, Biochem. J. 341, 483-489 and Jackson et al., 2000, J. Biol. Chem. 275, 19560-19566.
Human liver and muscle CPT1 cDNAs and rat CPT2 cDNA were subcloned in pGAPZB or pGAPZA, respectively. These plasmids were used to transform P. pastoris strain X-33 via electroporation after the preparation of electrocompetent cells. High copy number clones were selected where necessary using 0.5 or 1 mg/ml Zeocin. Cultures for activity measurements were induced for 16 h in YPD medium (1% yeast extract, 2% peptone, 2% glucose). Crude cell extracts were prepared by disrupting the cells with glass beads or French Press, depending on fermenter sizes. After centrifugation, the cell-free extracts were resuspended in cell breaking buffer (50 mM Tris, pH7.4, 100 mM KCl, 1 mM EDTA) in the presence of a protease inhibitor cocktail, before aliquoting and freezing at −20° C.
CPT activity was measured using a spectrophotometric assay using 5,5′-dithio-bis-(2-nitrobenzoic acid) (DTNB) also called Ellman's reagent. The HS-CoA released on the formation of acylcarnitine from carnitine (500 μM) and palmitoyl-CoA (80 μM) reduced DTNB (300 μM) forming 5-mercapto-(2-nitrobenzoic acid) which absorbed at 410 nm with a molar extinction coefficient of 13600 M^−1cm^−1. The assay buffer contained 120 mM KCl, 25 mM Tris, pH 7.4, 1 mM EDTA. This assay was used for the identification of selective inhibitors of the liver CPT1 isoform versus the muscle CPT1 and CPT2 isoforms.

O=C(COc1ccccc1)N1CCCC[C@@H]1c1csc(-c2ccccn2)n1 [Example 34, 2-Phenoxy-1-[(R)-2-(2-pyridin-2-yl-thiazol-4-yl)-piperidin-1-yl]-ethanone] and O=C(COc1ccccc1)N1CCCC[C@@H]1c1csc(-c2ccc(F)cc2)n1 [Example 35, 1-{(R)-2-[2-(4-Fluoro-phenyl)-thiazol-4-yl]-piperidin-1-yl}-2-phenoxy-ethanone] are within 1.5-fold of each other in IC50: 176 nM for the first, 155 nM for the second.

COC(=O)c1ccc(-c2nc([C@H]3CCCCN3C(=O)COc3ccccc3)cs2)cc1 [Example 36, 4-{4-[(R)-1-(2-Phenoxy-acetyl)-piperidin-2-yl]-thiazol-2-yl}-benzoic acid methyl ester] and O=C(O)c1ccc(-c2nc([C@H]3CCCCN3C(=O)COc3ccccc3)cs2)cc1 [Example 41, 4-{4-[(R)-1-(2-Phenoxy-acetyl)-piperidin-2-yl]-thiazol-2-yl}-benzoic acid] are within 1.5-fold of each other in IC50: 365 nM for the first, 296 nM for the second.

Going from O=C(COc1ccccc1)N1CCCC[C@@H]1c1csc(Cc2ccc(Cl)cc2)n1 [Example 37, 1-{(R)-2-[2-(4-Chloro-benzyl)-thiazol-4-yl]-piperidin-1-yl}-2-phenoxy-ethanone] to O=C(O)c1cccc(-c2nc([C@H]3CCCCN3C(=O)COc3ccccc3)cs2)c1 [Example 40, 3-{4-[(R)-1-(2-Phenoxy-acetyl)-piperidin-2-yl]-thiazol-2-yl}-benzoic acid], the IC50 falls from 725 nM to 80.3 nM (9-fold).

Going from O=C(COc1ccccc1)N1CCCC[C@@H]1c1csc(C2COc3ccccc3O2)n1 (stereo partly drawn) [Example 38, 1-{(R)-2-[2-(2,3-Dihydro-benzo[1,4]dioxin-2-yl)-thiazol-4-yl]-piperidin-1-yl}-2-phenoxy-ethanone] to O=C(O)c1cccc(-c2csc([C@H]3CCCCN3C(=O)COc3ccccc3)n2)c1 [Example 44, Sodium; 3-{2-[(R)-1-(2-phenoxy-acetyl)-piperidin-2-yl]-thiazol-4-yl}-benzoate], the IC50 falls from 398 nM to 24.1 nM (17-fold).

First: O=C(O)c1cccc(-c2csc([C@H]3CCCCN3C(=O)COc3ccccc3)n2)n1 [Example 42, 6-{2-[(R)-1-(2-Phenoxy-acetyl)-piperidin-2-yl]-thiazol-4-yl}-pyridine-2-carboxylic acid]
Second: Cc1sc([C@H]2CCCCN2C(=O)COc2ccccc2)nc1-c1cccc(C(=O)O)c1 [Example 46, 3-{5-Methyl-2-[(R)-1-(2-phenoxy-acetyl)-piperidin-2-yl]-thiazol-4-yl}-benzoic acid]
The IC50 of the first is 2.7-fold lower: 37.7 nM for the first, 100 nM for the second. The first is the more potent here.

In the case of COC(=O)c1cccc(-c2nc([C@H]3CCCCN3C(=O)COc3ccccc3)sc2C)c1 [Example 45, 3-{5-Methyl-2-[(R)-1-(2-phenoxy-acetyl)-piperidin-2-yl]-thiazol-4-yl}-benzoic acid methyl ester], the IC50 is reported as 300 nM.
